The values that follow come from patent US11059778B2, “Cannabinoid receptor CB2 ligand 4-(aminomethyl)-N, N-dialkylanilines” (UNIVERSITY OF PITTSBURGH—OF THE COMMONWEALTH SYSTEM OF …, priority 2015, dated 2021).

Molecules are shown by their SMILES.

For assay [1], the target named is T1, human CB2 receptors (Homo sapiens, UniProt P34972).
T1 construct: expressed in transfected cells
Kind of assay: [3H]CP-55,940 radioligand competition binding assay, CB2. As to conditions: for Ki: CHO cell membranes, [3H]CP-55,940 displacement. As for the experimental part:
(§1) Binding assay. The bioassay is carried out using the Perkin Elmer 96-well Top Counter. This bioassay is also known as a competition binding assay and the biological evaluation is to determine the CB receptor binding affinity (Ki) of the screened ligands by displacing [^3H]-CP-55940 (or other radioligands). The brief procedure is given below.
(§2) Perkin Elmer 96-well TopCounter is used at PMLSC and in our laboratory to determine the CB receptor binding affinity (Ki) of the in-silico screened ligands by displacing [^3H]-CP-55,940 (or other radioligands). In competition binding experiments, the tested compound dilutions are carried out in triplicate in TME buffer (25 mM Tris, 5 mM MgCl2, 1 mM EDTA) containing 0.1% (w/v) fatty acid free bovine serum albumin (BSA), pH 7.4. Various concentrations of the tested compound are added in the same volume to 0.5 nM [^3H]CP-55,940. TME buffer and cell membrane preparations expressing CB receptors (2.5 μg per well) are added to a final volume of 200 μL. For the saturation binding experiments, varying concentrations of [^3H]CP-55,940 (0.05-1.5 nM) with or without 2 μM of unlabeled ligands (CP-55,940 or WIN-55,212-2) are incubated with the receptor membrane preparations to determine Kd and nonspecific binding. After the binding suspensions are incubated at 30° C. for 1 hr, the reaction is terminated by rapid filtration through microfiltration plates coated with 0.5% polyethylenimine (Unifilter GF/B filterplate, PerkinElmer) followed by 5 washes with ice cold TME buffer containing 0.5% BSA on a Packard Filtermate Harvester (PerkinElmer). The plates are then dried overnight and 30 μl MicroScint 0 scintillation cocktail are added to each well of the dried filter plates. Then the bound radioactivity is counted using a Perkin Elmer 96-well TopCounter. The Ki is calculated by using nonlinear regression analysis (Prism 5; GraphPad Software Inc., San Diego, Calif.), with the Kd values for [^3H]CP-55,940 determined from saturation binding experiments. This assay is used for determining binding affinity parameters (Ki) of ligand-receptor interactions for the CB receptor.
(§3) The affinities of the synthesized ligands were determined in radioligand binding studies at human CB1 and CB2 receptors using [3H](—)-cis-3-[2-hydroxy-4-(1,1 dimethylheptyl)phenyl]-trans-4-(3-hydroxypropyl) cyclohexanol (CP55,940) as a CB receptor radioligand. As a source for human CB1 and CB2 receptors, membrane preparations of Chinese hamster ovary (CHO) cells stably expressing the respective receptor subtype were utilized (50 μg of protein/vial). CB2 selective ligand SR144528 (CB2 inverse agonist) and CB1 ligand SR141716 (CB1 inverse agonist) were used as positive controls, respectively, along with the tested compounds in bioassays experiments. Only compounds with high CB2 receptor binding potency was chosen to carry out the CB1 binding assay. CB ligand competition binding assay was carried out as described previously in Gertsch, J., et al., Beta-caryophyllene is a dietary cannabinoid. Proc Natl Acad Sci USA 2008, 105 (26), 9099-104. Briefly, non-radioactive (or cold) ligands (synthesized derivatives and reference ligands) were diluted in a binding buffer (50 mM Tris-HCl (pH 7.4), 5 mM MgC12, 2.5 mM EGTA, and 0.1% (w/v) fatty acid free BSA), supplemented with 10% dimethyl sulfoxide and 0.4% methyl cellulose. Each assay plate well contained a total of 200 μL of reaction mixture composed of 5 μg of CB1 (or 2.5 μg CB2) membrane protein, labeled [3H]-CP-55,940 ligand at a final concentration of 2.5 nM, and the unlabeled ligand at its varying dilutions as stated above. Plates were incubated at 30° C. for 1 hour with gentle shaking.
(§4) The reaction was terminated by rapid filtration through Unifilter GF/B filter plates using a Unifilter Cell Harvester (PerkinElmer). After the plate was allowed to dry overnight, 30 μL MicroScint-0 cocktail (PerkinElmer) was added to each well, and the radioactivity was counted using a PerkinElmer TopCounter. […]
(In a radioligand displacement assay an active substance lowers the binding of a labelled ligand.)

The target of assay [2] is T2, human CB1 receptors (Homo sapiens, UniProt P21554).
T2 construct: expressed in transfected cells
T2 sequence (P21554 whole entry): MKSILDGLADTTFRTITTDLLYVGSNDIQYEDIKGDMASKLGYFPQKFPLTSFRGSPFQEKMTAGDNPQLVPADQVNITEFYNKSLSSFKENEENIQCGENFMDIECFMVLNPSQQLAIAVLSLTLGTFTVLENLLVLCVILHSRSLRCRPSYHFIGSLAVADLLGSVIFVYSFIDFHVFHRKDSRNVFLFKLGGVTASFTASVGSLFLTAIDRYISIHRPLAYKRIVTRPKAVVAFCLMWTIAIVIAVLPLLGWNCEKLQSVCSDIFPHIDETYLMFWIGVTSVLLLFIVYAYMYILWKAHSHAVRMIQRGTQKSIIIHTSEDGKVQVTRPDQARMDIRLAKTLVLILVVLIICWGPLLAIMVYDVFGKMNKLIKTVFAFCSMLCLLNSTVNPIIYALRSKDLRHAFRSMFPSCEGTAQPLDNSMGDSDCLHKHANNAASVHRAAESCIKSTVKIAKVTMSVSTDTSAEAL
The assay is described as follows: [3H]CP-55,940 radioligand competition binding assay, CB1. The following applies: CHO cell membranes, [3H]CP-55,940 displacement. As for the experimental part:
as §1, §2, §3, §4

T1 sequence (P34972 whole entry): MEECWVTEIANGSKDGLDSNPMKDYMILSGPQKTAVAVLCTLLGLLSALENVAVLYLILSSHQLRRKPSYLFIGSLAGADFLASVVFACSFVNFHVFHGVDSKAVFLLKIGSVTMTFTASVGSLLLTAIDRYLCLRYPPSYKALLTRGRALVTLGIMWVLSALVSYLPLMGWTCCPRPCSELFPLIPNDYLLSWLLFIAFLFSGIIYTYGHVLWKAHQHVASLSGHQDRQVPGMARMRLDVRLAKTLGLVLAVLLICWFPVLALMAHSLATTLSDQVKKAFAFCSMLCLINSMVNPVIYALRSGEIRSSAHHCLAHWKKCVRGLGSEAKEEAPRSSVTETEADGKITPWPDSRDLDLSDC

The Ki is a measure of affinity in units of concentration, obtained from inhibition or displacement. Lower therefore signals a stronger hold on the target. Regarding `CCN(CC)c1ccc(CN(Cc2cc(OC)c(OC)c(OC)c2)C(=O)c2cccs2)cc1` [Compound 11, N-(4-(diethylamino)benzyl)-N-(3,4,5-trimethoxybenzyl)thiophene-2-carboxamide], the “SI: selectivity index for CB2, calculated as Ki(CB1)/Ki(CB2) ratio” value in assay [1] is listed as 31. In addition, the inhibitory constant (Ki) in assay [1] amounted to 107 nM; in assay [2], 3280 nM.

Turning to `CCN(CC)c1ccc(CN(Cc2cc(OC)c(OC)c(OC)c2)S(=O)(=O)/C=C/c2ccccc2)cc1` [Compound 15, (E)-N-(4-(diethylamino)benzyl)-2-phenyl-N-(3,4,5-trimethoxybenzyl)ethene-1-sulfonamidebenzenesulfonamide], in assay [1], the “SI: selectivity index for CB2, calculated as Ki(CB1)/Ki(CB2) ratio” value was 145 and the Ki amounted to 138 nM. The same molecule gave a Ki in assay [2] of more than 20000 nM.

Consider `CCN(CC)c1ccc(CN(Cc2cc(OC)c(OC)c(OC)c2)S(=O)(=O)c2ccc(C=O)cc2)cc1` [Compound 18, N-(4-(diethylamino)benzyl)-4-formyl-N-(3,4,5-trimethoxybenzyl)benzenesulfonamide], for which, in assay [1], the “SI: selectivity index for CB2, calculated as Ki(CB1)/Ki(CB2) ratio” value is 9 and affinity was put at a Ki of 242 nM. For the same molecule, affinity in assay [2] was put at a Ki of 2290 nM.
